US11136311B2, “Heteroaromatic derivatives as NIK inhibitors” (Janssen Pharmaceutica NV, priority 2016, dated 2021)
Read-outs that look alike come from different tables or passages of the source.

How the values were obtained:
[1] = target: recombinant human NF-kappaB-inducing kinase (NIK/MAP3K14) (Homo sapiens (Human), UniProt Q99558); test: Inhibition of auto-phosphorylation of recombinant human NIK/MAP3K14 activity (AlphaScreen); type: biochemical; conditions: averaged values over all measurements on all batches
Experimental: Inhibition of auto-phosphorylation of recombinant human NF-kappaB-inducing kinase (NIK/MAP3K14) activity (AlphaScreen®)
NIK/MAP3K14 auto-phosphorylation activity was measured using the AlphaScreen® (αscreen) format (Perkin Elmer). All compounds tested were dissolved in dimethyl sulfoxide (DMSO) and further dilutions were made in assay buffer. Final DMSO concentration was 1% (v/v) in assays. Assay buffer was 50 mM Tris pH 7.5 containing 1 mM EGTA (ethylene glycol tetraacetic acid), 1 mM DTT (dithiothreitol), 0.1 mM Na3VO4, 5 mM MgCl2, 0.01% Tween® 20. Assays were carried out in 384 well Alphaplates (Perkin Elmer). Incubations consisted of compound, 25 microM Adenosine-5′-triphosphate (ATP), and 0.2 nM NIK/MAP3K14. Incubations were initiated by addition of GST-tagged NIK/MAP3K14 enzyme, carried out for 1 h at 25° C. and terminated by addition of stop buffer containing anti-phospho-IKK Ser176/180 antibody. Protein A Acceptor and Glutathione-Donor beads were added before reading using an EnVision® Multilabel Plate Reader (Perkin Elmer). Signal obtained in the wells containing blank samples was subtracted from all other wells and IC50's were determined by fitting a sigmoidal curve to % inhibition of control versus Log10 compound concentration.

[2] = tested on: JJN-3 cells; test: Antiproliferative activity on JJN-3 (NIK translocated) multiple myeloma cells (CellTiter-Glo); type: cell-based, human; conditions: JJN-3 (NIK translocated) cells, 96 hr, averaged values, read-out: JJN-3 Proliferation inhibition (IC50 (nM))
Experimental: (§1) Determination of antiproliferative activity on JJN-3 (NIK translocated) and KMS12-BM (NIK WT) multiple myeloma cells
(§2) All compounds tested were dissolved in DMSO and further dilutions were made in culture medium. Final DMSO concentration was 0.3% (v/v) in cell proliferation assays. Viability was assessed using CellTiter-Glo cell viability assay kit (Promega). The human JJN-3 and KMS12-BM cells (DSMZ) were cultured in RPMI 1640 medium supplemented with 2 mM L-glutamine, and 10% fetal calf serum (PAA). Cells were routinely kept as suspension cells at 37° C. in a humidified 5% CO2 atmosphere. Cells were passaged at a seeding density of 0.2×10^6/ml twice a week. Cells were seeded in black tissue culture treated 96-well plates (Perkin Elmer). Densities used for plating ranged from 15000 (JJN3) to 20000 (KMS12BM) cells per well in a total volume of 135 μl medium. Drugs and/or solvents were added (15 μl) to a final volume of 150 μl. Following 96 hr of treatment, plates were removed from the incubator and allowed to equilibrate to room temperature for approx 10 min. 75 μl CellTiter-Glo reagent was added to each well that was then covered (Perkin Elmer Topseal) and shaken on plate shaker for 10 min. Luminescence was measured on a HTS Topcount (Perkin Elmer). Within an experiment, the results for each treatment were the mean of 2 replicate wells. For initial screening purposes, compounds were tested using a 9 point dilution curve (serial 1:3 dilutions). For each experiment, controls (containing no drug) and a blank incubation (containing cells read at the time of compound addition) were run in parallel. The blank value was subtracted from all control and sample values. For each sample, the mean value for cell growth (in relative light units) was expressed as a percentage of the mean value for cell growth of the control.

[3] = tested on: KMS12-BM cells; test: Antiproliferative activity on KMS12-BM (NIK WT) multiple myeloma cells (CellTiter-Glo); type: cell-based, human; conditions: KMS12-BM (NIK WT) cells, 96 hr, averaged values, read-out: KMS-12 Proliferation inhibition (IC50 (nM))
Experimental: as §1, §2

Sequence of recombinant human NF-kappaB-inducing kinase (NIK/MAP3K14) (Q99558 whole entry): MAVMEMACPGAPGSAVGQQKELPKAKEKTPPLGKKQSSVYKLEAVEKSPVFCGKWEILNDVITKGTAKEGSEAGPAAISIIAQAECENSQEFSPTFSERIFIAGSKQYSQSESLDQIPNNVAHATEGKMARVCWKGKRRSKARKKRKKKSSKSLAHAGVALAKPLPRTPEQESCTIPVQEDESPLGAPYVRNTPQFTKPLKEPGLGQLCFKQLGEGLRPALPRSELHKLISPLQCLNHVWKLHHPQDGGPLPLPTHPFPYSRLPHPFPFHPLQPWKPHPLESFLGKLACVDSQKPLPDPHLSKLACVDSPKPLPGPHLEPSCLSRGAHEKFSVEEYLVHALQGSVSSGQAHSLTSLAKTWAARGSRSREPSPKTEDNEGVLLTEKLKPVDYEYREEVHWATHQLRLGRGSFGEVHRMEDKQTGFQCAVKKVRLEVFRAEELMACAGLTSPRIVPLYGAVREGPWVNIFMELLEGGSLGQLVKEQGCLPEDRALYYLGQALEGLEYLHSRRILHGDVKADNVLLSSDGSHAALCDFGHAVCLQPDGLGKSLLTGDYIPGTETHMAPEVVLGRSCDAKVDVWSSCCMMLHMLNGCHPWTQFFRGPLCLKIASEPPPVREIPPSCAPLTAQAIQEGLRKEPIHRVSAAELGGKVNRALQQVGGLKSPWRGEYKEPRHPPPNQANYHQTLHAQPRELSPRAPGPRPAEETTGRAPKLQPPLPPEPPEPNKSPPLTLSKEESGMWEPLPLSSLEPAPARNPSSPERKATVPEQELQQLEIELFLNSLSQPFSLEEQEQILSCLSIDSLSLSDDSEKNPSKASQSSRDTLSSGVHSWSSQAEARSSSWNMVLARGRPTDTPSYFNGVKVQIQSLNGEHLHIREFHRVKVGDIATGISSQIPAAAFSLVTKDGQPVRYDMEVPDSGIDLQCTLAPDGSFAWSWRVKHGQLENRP

| Structure (SMILES) | IC50 [1] | IC50 ([2]; Homo sapiens, JJN-3, 96 h) | IC50 ([3]; Homo sapiens, KMS-12-BM, 96 h) | IC50 [2] | IC50 [3] |
| --- | --- | --- | --- | --- | --- |
| Cc1cc(Nc2nccc(-c3cc(C#N)c4c(c3)[C@@](C)(CO)CN4)n2)n(C2CCN(C)CC2)n1 [Compound 62] | 23 nM | 204 nM | 269 nM | – | – |
| Cc1nnc(Nc2nccc(-c3cc(C#N)c4c(c3)C(C)(CO)CN4)n2)o1 (stereo not drawn) [Compound 142] | 42 nM | > 10000 nM | ~9770 nM | – | – |
| Cn1nc(Nc2nccc(-c3cc(C#N)c4c(c3)[C@@](C)(CO)CN4)n2)cc1CN1CCOCC1 [Compound 39] | 32 nM | 1440 nM | > 10000 nM | – | – |
| Cc1cc(Nc2nccc(-c3cc(C#N)c4c(c3)[C@@](C)(CO)CN4)n2)n(CC(=O)N(C2CC2)C2CC2)n1 [Compound 80] | 3.9 nM | 1100 nM | 6170 nM | – | – |
| Cc1cc(Nc2nccc(-c3cc(C#N)c4c(c3)[C@@](C)(CO)CN4)n2)n(CC2CCCCO2)n1 (single isomer, unassigned) [Compound 69] | 5.8 nM | – | – | 78 nM | > 10000 nM |
| CC1(CO)CNc2c(C#N)cc(-c3ccnc(Nc4cnn(CC(F)F)c4)n3)cc21 (stereo not drawn) [Compound 30] | 3.2 nM | 47 nM | ~170 nM | – | – |
| CN1CCC(n2nccc2Nc2nccc(-c3cc(C#N)c4c(c3)[C@@](C)(CO)CN4)n2)CC1 [Compound 38] | 47 nM | 3980 nM | 3890 nM | – | – |
| CN(CCO)C[C@]1(C)CNc2c(C#N)cc(-c3ccnc(Nc4ccn(C)n4)n3)cc21 [Compound 173] | 162 nM | 6030 nM | ~6310 nM | – | – |
| Cc1nscc1Nc1nccc(-c2cc(C#N)c3c(c2)[C@@](C)(CO)CN3)n1 [Compound 146] | 1.3 nM | 102 nM | 589 nM | – | – |
| CC(C)n1ccc(Nc2nccc(-c3cc(C#N)c4c(c3)[C@](C)(CO)CN4)n2)n1 [Compound 31] | 14 nM | 589 nM | > 10000 nM | – | – |
| Cn1nc(Nc2nccc(-c3cc(C#N)c4c(c3)C(C)(CO)CN4)n2)cc1C(=O)N1CCC(F)(F)CC1 (stereo not drawn) [Compound 22] | 18 nM | 2340 nM | > 10000 nM | – | – |
| Cc1cc(Nc2nccc(-c3cc(C#N)c4c(c3)[C@@](C)(CO)CN4)n2)n(CC2CCCCO2)n1 (single isomer, unassigned) [Compound 68] | 5.3 nM | – | > 10000 nM | 38 nM | – |
| Cc1nn(C2CCOCC2)cc1Nc1nccc(-c2cc(C#N)c3c(c2)[C@@](C)(CO)CN3)n1 [Compound 74] | 3 nM | 324 nM | ~3890 nM | – | – |
| COCCCn1nccc1Nc1nccc(-c2cc(C#N)c3c(c2)[C@](C)(CO)CN3)n1 [Compound 47] | 44 nM | 1550 nM | > 10000 nM | – | – |
| C[C@]1(CO)CNc2c(C#N)cc(-c3ccnc(Nc4ccn(CC5CC5)n4)n3)cc21 [Compound 40] | 2.2 nM | 295 nM | 562 nM | – | – |
| CC(C)(C)c1cc(Nc2nccc(-c3cc(C#N)c4c(c3)C(C)(CO)CN4)n2)n(CCO)n1 (stereo not drawn) [Compound 10] | 13 nM | 724 nM | > 10000 nM | – | – |
| COCCn1ccc(Nc2nccc(-c3cc(C#N)c4c(c3)C(C)(CO)CN4)n2)n1 (stereo not drawn) [Compound 16] | 2.8 nM | 525 nM | 7080 nM | – | – |
| COC(C)(C)CCn1nc(C)cc1Nc1nccc(-c2cc(C#N)c3c(c2)[C@@](C)(CO)CN3)n1 [Compound 59] | 5 nM | 68 nM | 1950 nM | – | – |
| CN1CCC(n2cc(Nc3nccc(-c4cc(C#N)c5c(c4)C(C)(CO)CN5)n3)cn2)CC1 (stereo not drawn) [Compound 12] | 3.6 nM | ~45 nM | ~214 nM | – | – |
| Cc1cc(Nc2nccc(-c3cc(C#N)c4c(c3)[C@@](C)(CO)CN4)n2)n(C2CCOCC2)n1 [Compound 63] | 9.8 nM | 692 nM | 6310 nM | – | – |
| CC(C)(c1cc(Nc2nccc(-c3cc(C#N)c4c(c3)[C@@](C)(CO)CN4)n2)[nH]n1)S(C)(=O)=O [Compound 65] | 10 nM | ~1410 nM | > 10000 nM | – | – |
| Cc1cc(Nc2nccc(-c3cc(C#N)c4c(c3)[C@@](C)(CO)CN4)n2)n(C2CCS(=O)(=O)C2)n1 (mixture of isomers) [Compound 33] | 9.1 nM | 1260 nM | ~6170 nM | – | – |
| CN1CCC(n2ccc(Nc3nccc(-c4cc(C#N)c5c(c4)[C@@](C)(CO)CN5)n3)n2)CC1 [Compound 37] | 2 nM | 162 nM | 182 nM | – | – |
| CN(CCO)C[C@@]1(C)CNc2c(C#N)cc(-c3ccnc(Nc4ccn(C)n4)n3)cc21 [Compound 174] | 35 nM | – | – | 1550 nM | 3160 nM |
| Cc1cc(Nc2nccc(-c3cc(C#N)c4c(c3)[C@@](C)(CO)CN4)n2)n(CC2CCCO2)n1 (single isomer, unassigned) [Compound 51] | 4.1 nM | ~59 nM | – | – | ~1900 nM |

The next lines start with the values.

| IC50 [1] | IC50 ([2]; Homo sapiens, JJN-3, 96 h) | IC50 ([3]; Homo sapiens, KMS-12-BM, 96 h) | IC50 [2] | IC50 [3] | Structure (SMILES) |
| --- | --- | --- | --- | --- | --- |
| 2.1 nM | 78 nM | ~479 nM | – | – | Cn1nc(Cl)cc1Nc1nccc(-c2cc(C#N)c3c(c2)[C@@](C)(CO)CN3)n1 [Compound 41] |
| 1.6 nM | 141 nM | 912 nM | – | – | Cn1nc(C2CCOCC2)cc1Nc1nccc(-c2cc(C#N)c3c(c2)[C@@](C)(CO)CN3)n1 [Compound 67] |
| 4.4 nM | ~603 nM | 1440 nM | – | – | Cn1nc(Nc2nccc(-c3cc(C#N)c4c(c3)C(C)(CO)CN4)n2)cc1C1CC1 (stereo not drawn) [Compound 29] |
| 10 nM | 646 nM | > 10000 nM | – | – | CC(C)n1nccc1Nc1nccc(-c2cc(C#N)c3c(c2)C(C)(CO)CN3)n1 (stereo not drawn) [Compound 24] |
| 27 nM | 7760 nM | > 10000 nM | – | – | Cn1cc(Cl)c(Nc2nccc(-c3cc(C#N)c4c(c3)C(C)(CO)CN4)n2)n1 (stereo not drawn) [Compound 32] |
| 5.4 nM | 708 nM | > 10000 nM | – | – | Cn1nc(C2(C)COC2)cc1Nc1nccc(-c2cc(C#N)c3c(c2)C(C)(CO)CN3)n1 (stereo not drawn) [Compound 5] |
| 28 nM | ~933 nM | > 10000 nM | – | – | COCCn1nc(C)cc1Nc1nccc(-c2cc(C#N)c3c(c2)[C@](C)(CO)CN3)n1 [Compound 57] |
| 2.5 nM | ~55 nM | 162 nM | – | – | Cn1cc(Nc2nccc(-c3cc(C#N)c4c(c3)C(C)(CO)CN4)n2)cn1 (stereo not drawn) [Compound 4] |
| 6.9 nM | 141 nM | 794 nM | – | – | Cn1nccc1Nc1nccc(-c2cc(C#N)c3c(c2)C(C)(CO)CN3)n1 (stereo not drawn) [Compound 2] |
| 3.1 nM | ~363 nM | ~1410 nM | – | – | CNC(=O)c1cc(Nc2nccc(-c3cc(C#N)c4c(c3)[C@@](C)(CO)CN4)n2)n(C)n1 [Compound 56] |
| 4.2 nM | 407 nM | ~1230 nM | – | – | Cc1cc(Nc2nccc(-c3cc(C#N)c4c(c3)C(C)(CO)CN4)n2)n(C)n1 (stereo not drawn) [Compound 3] |
| 8.1 nM | 1900 nM | 1510 nM | – | – | Cn1nc(C(=O)NC2CCOCC2)cc1Nc1nccc(-c2cc(C#N)c3c(c2)C(C)(CO)CN3)n1 (stereo not drawn) [Compound 25] |
| 4.4 nM | 59 nM | ~2040 nM | – | – | Cc1cc(Nc2nccc(-c3cc(C#N)c4c(c3)[C@@](C)(CO)CN4)n2)n(CC(C)C)n1 [Compound 55] |
| 4 nM | 250 nM | 2430 nM | – | – | Cn1ccc(Nc2nccc(-c3cc(C#N)c4c(c3)C(C)(CO)CN4)n2)n1 (stereo not drawn) [Compound 1] |
| 2.6 nM | 174 nM | 7590 nM | – | – | Cc1c(Nc2nccc(-c3cc(C#N)c4c(c3)C(C)(CO)CN4)n2)cnn1C (stereo not drawn) [Compound 36] |
